The values below come from patent publication US4916135A, “N-heteroaryl-4-quinolinamines” (priority 1989, dated 1990).

Test [1] concerns 2-phenyl-1,4-benzoquinone-induced writhing. Briefly: 2-phenyl-1,4-benzoquinone-induced writhing (PQW) test in mice (analgesic activity). Format: in vivo. The note with it: for inhibition in vivo at 20 mg/kg: Mus musculus, sc, read-out: PQW Percent inhibition. As for the experimental part: Compounds I of the present invention are useful as analgesic agents due to their ability to alleviate pain in mammals. […] Exptl. Biol. Med., 95, 729 (1957)].
The results of some of the compounds of this invention (expressed in terms of percent inhibition at 20 mg/kg, s.c.) are shown in Table 1 along with that of a prior art compound.
On the technique in general: An intraperitoneal irritant provokes the stretching counted in writhing tests.

In test [2] the test system is Scopolamine Induced Memory Deficit. As to the kind of experiment: scopolamine-induced Dark Avoidance Assay. The note with it: s.c., mice, 24 hours. It counts as in vivo. As for the experimental part:
In this assay mice are tested for their ability to remember an unpleasant stimulus for a period of 24 hours. A mouse is placed in a chamber that contains a dark compartment; a strong incandescent light drives it to the dark compartment, where an electric shock is administered through metal plates on the floor. The animal is removed from the testing apparatus and tested again, 24 hours later, for the ability to remember the electric shock.
If scopolamine, an anticholinergic that is known to cause memory impairment, is administered before an animal's initial exposure to the test chamber, the animal re-enters the dark compartment shortly after being placed in the test chamber 24 hours later. This effect of scopolamine is blocked by an active test compound, resulting in a greater interval before re-entry into the dark compartment.
The results for an active compound are expressed as the percent of a group of animals in which the effect of scopolamine is blocked, as manifested by an increased interval between being placed in the test chamber and re-entering the dark compartment.
Test results of scopolamine-induced Dark Avoidance Assay for representative compounds of this invention are presented in Table 2 along with that of a reference compound.

Where a name gives a salt, the structure may show the parent alone. Read-outs that look alike come from different tables or passages of the source.

As to `CCN(CC)Cc1cccn1Nc1ccnc2cc(Cl)ccc12` [7-Chloro-N-(2-diethylaminomethyl-1H-pyrrol-1-yl)-4-quinolinamine], the inhibition in vivo at 20 mg/kg in test [1] (at 20 mg/kg, s.c., mice) is 55%.
For `CCCN(c1ccnc2cc(Cl)ccc12)n1cccc1.O=C(O)/C=C\C(=O)O` [7-Chloro-N-propyl-N-(1H-pyrrol-1-yl)-4-quinolinamine maleate], the inhibition in vivo at 20 mg/kg in test [1] (at 20 mg/kg, s.c., mice) was found to be 42%. The “% of Animals with Scopolamine Induced Memory Deficit Reversal” value (“% of Animals” below) in test [2] (0.31 mg/kg of body weight) is 20%.
`c1ccc2c(Nn3c4ccccc4c4ccccc43)ccnc2c1` [N-(4-Quinolinyl)-9H-carbazol-9-amine hydrochloride]: the inhibition in vivo at 20 mg/kg in test [1] (at 20 mg/kg, s.c., mice) came to 30%.
Still for that read-out and setting: for `CCCN(c1ccnc2cc(Cl)ccc12)n1cccc1C=O` [1-[(7-Chloro-4-quinolinyl)propylamino]-1H-pyrrole-2-carboxaldehyde] the value was 31%.
In the case of `Cc1cn(Nc2ccnc3ccccc23)c2ccccc12` [N-(3-Methyl-1H-indol-1-yl)-4-quinolinamine hydrochloride], the inhibition in vivo at 20 mg/kg in test [1] (at 20 mg/kg, s.c., mice) was determined as 44%.
The same measure, in the same setting: then `C#CCn1ccc(=Nn2cccc2)c2ccc(Cl)cc21` [7-Chloro-1-(2-propynyl)-N-(1H-pyrrol-1-yl)-4(1H)-quinolinimine], with 48%.
With `Cl.FC(F)(F)c1ccc2c(Nn3cccc3)ccnc2c1` [N-(1H-Pyrrol-1-yl)-7-trifluoromethyl-4-quinolinamine hydrochloride], the inhibition in vivo at 20 mg/kg in test [1] (at 20 mg/kg, s.c., mice) came to 48%. Also, the “% of Animals” value in test [2] (1.25 mg/kg of body weight) was determined as 40%.
On to `CCCN(c1c2c(nc3ccccc13)CCCC2)n1cc(C)c2ccccc21` [N-(3-Methyl-1H-indol-1-yl)-N-propyl-1,2,3,4-tetrahydro-9-acridinamine], for which, in test [1] (at 20 mg/kg, s.c., mice), the inhibition in vivo at 20 mg/kg came to 42%.
Consider `Cl.c1ccc2c(Nn3cccc3)ccnc2c1` [N-(1H-Pyrrol-1-yl)-4-quinolinamine hydrochloride], for which the inhibition in vivo at 20 mg/kg in test [1] (at 20 mg/kg, s.c., mice) was 26%. Besides, the “% of Animals” value in test [2] (0.16 mg/kg of body weight) worked out at 47%.
With `CCCN(c1ccnc2cc(Cl)ccc12)n1ccc(C=O)c1` [1-[(7-Chloro-4-quinolinyl)propylamino]-1H-pyrrole-3-carboxaldehyde], the inhibition in vivo at 20 mg/kg in test [1] (at 20 mg/kg, s.c., mice) came out at 42%.
On the same count and under the same terms, then `CCCN(c1ccnc2ccccc12)n1c2ccccc2c2ccccc21` [N-Propyl-N-(4-quinolinyl)-9H-carbazol-9-amine], with 55%.
Turning to `CCCN(c1ccnc2ccccc12)n1cccc1` [N-Propyl-N-(1H-pyrrol-1-yl)-4-quinolinamine], the inhibition in vivo at 20 mg/kg in test [1] (at 20 mg/kg, s.c., mice) amounted to 33%. Also, in test [2] (0.16 mg/kg of body weight), the “% of Animals” value amounted to 33%.
As to `Cl.c1ccc2c(Nn3cccc3)c3c(nc2c1)CCCC3` [N-(1H-Pyrrol-1-yl)-1,2,3,4-tetrahydro-9-acridinamine hydrochloride], the inhibition in vivo at 20 mg/kg in test [1] was found to be 43%. For the same compound, the “% of Animals” value in test [2] (0.63 mg/kg of body weight) stood at 20%.
For the compound Propoxyphene [reference compound], in test [1] (at 3.9 mg/kg, s.c., mice, reference compound), the “PQW Percent inhibition” value came to 50%.
Consider `c1ccc2c(c1)ccn2Nc1ccnc2ccccc12` [N-(1H-Indol-1-yl)-4-quinolinamine maleate], for which the inhibition in vivo at 20 mg/kg in test [1] (at 20 mg/kg, s.c., mice) was 32%.
Same read-out and setting: then `Clc1ccc2c(Nn3cccc3CN3CCCCC3)ccnc2c1` [7-Chloro-N-[2-(1-piperidinyl)methyl-1H-pyrrol-1-yl]-4-quinolinamine], with 35%.
Turning to `CNC(=O)Oc1ccc2c(c1)[C@]1(C)CCN(C)[C@@H]1N2C` [Physostigmine, reference compound], in test [2] (0.31 mg/kg of body weight), the “% of Animals” value stood at 20%.
